20 compounds from patent US7728131B2, “Amide derivative and medicine” (Nippon Shinyaku Co., Ltd., priority 2003, dated 2010) can be followed below.

One data set concerns K562 cells. The experiment in a line: Cell growth inhibitory effect, K562 cells (Cell counting Kit-8, 72 hours).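 For all read-outs here: Read-out is formazan absorbance at 450 nm from WST-8 reduction after a 3 h color reaction, with K562 and U937 cells grown in 96-well plates.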 Conditions: for IC50: Homo sapiens, K562, 72 h, read-out: K562 cells (IC50 value: μM); for Ratio (U937 cells/K562 cells): IC50 U937 cells / IC50 K562 cells.
In another data set the test system is U937 cells. The experiment in a line: Cell growth inhibitory effect, U937 cells (Cell counting Kit-8, 72 hours). The note with it: Homo sapiens, U-937, BCR-ABL negative U937 cells, WST-8 absorbance. The format is cell-based. Here is the method: The plate was incubated in a CO2 incubator overnight. […] The plate was incubated in a CO2 incubator. After 72 hours, 20 μl
A general note: Tetrazolium assays rely on reduction of a dye to a coloured formazan, in cell work by metabolically active cells.

Where [1] appears, read: continuation of Table 3, read-out: U937 cells (IC50 value: nμM).

Structures are written as SMILES. Counter-ions that a name gives are not always drawn. Like-named read-outs stand apart in the source and are kept apart here.

Description for K562 cells: of Cell counting Kit-8 (5 mmol/l WST-8, 0.2 mmol/1 1-Methoxy PMS, 150 mmol/l NaCl) (manufactured by Dojindo) was added to each well. After reaction for color development in a CO2 incubator for 3 hours, an absorbance of formazan, generated by reduction of WST-8 was determined at 450 nm using Multi-level counter ARVOsx (manufactured by Wallac).
K562 cells and U937 cells (purchased from American Type Culture Collection) were cultured in a RPMI-1640 medium (manufactured by Sigma) containing 10% (v/v) fetal calf serum (FCS) (manufactures by Sigma) (RPMI-1640/FCS). K562 cells and U937 cells were seeded at a density of 5000 cells/100 μl/well and 4000 cells/100 μl/well in each of 96-hole-plate (manufactured by costar), respectively. The plate was incubated in a CO2 incubator overnight. […] The resulting solution was diluted 500 times in a RPMI-1640/FCS medium and then 100 μl of the diluent was added in a well. The plate was incubated in a CO2 incubator. After 72 hours, 20 μl

As usually defined, the melting point is the temperature, or range, at which the solid turns liquid. Take `Cc1ccc(NC(=O)c2ccc(CN3CCNCC3)c(C(F)(F)F)c2)cc1Nc1nccc(-c2cncnc2)n1` (as salt: trifluoroacetate) [Example 43, 4-(1-piperazinylmethyl)-3-trifluoromethyl-N-{4-methyl-3-[4-(5-pyrimidinyl)pyrimidin-2-ylamino]phenyl}benzamide trifluoroacetate]: the melting point is 199 to 202 °C (dec.).

One may read the IC50 as the midpoint of a concentration-inhibition curve. For the compound `Cc1ccc(NC(=O)c2ccc(CN3CCN(C)[C@H](C)C3)c(C(F)(F)F)c2)cc1Nc1nccc(-c2cncnc2)n1.Cl` [Example 71, (+)-4-((R)-3,4-dimethylpiperazin-1-ylmethyl)-3-trifluoromethyl-N-{4-methyl-3-[4-(5-pyrimidinyl)pyrimidin-2-ylamino]phenyl}benzamide hydrochloride], the melting point fell in the range of 186 to 194 °C. In the data set on K562 cells, the IC50 came to 0.0061 µM and the “Ratio (U937 cells/K562 cells)” value amounted to 1098. For the same compound, in the data set with U937 cells (setting [1]), the IC50 is 6.7 µM.

For `Cc1ccc(NC(=O)c2ccc(CN3CC[C@H](N)C3=O)c(C(F)(F)F)c2)cc1Nc1nccc(-c2cncnc2)n1` [Example 46, (−)-4-((S)-3-amino-2-oxopyrrolidin-1-ylmethyl)-3-trifluoromethyl-N-{4-methyl-3-[4-(5-pyrimidinyl)pyrimidin-2-ylamino]phenyl}benzamide], in the data set with K562 cells, the IC50 was found to be 0.019 µM and the “Ratio (U937 cells/K562 cells)” value came out at 1526. Moreover, the IC50 in the data set on U937 cells (setting [1]) stood at 29 µM.

`Cc1ccc(NC(=O)c2ccc(CN3CCN(CCF)CC3)c(C(F)(F)F)c2)cc1Nc1nccc(-c2cncnc2)n1.Cl` [Example 35, 4-[4-(2-fluoroethyl)piperazin-1-ylmethyl]-3-trifluoromethyl-N-{4-methyl-3-[4-(5 yrimidinyl)pyrimidin-2-ylamino]phenyl}benzamide hydrochloride]: the melting point was 213 to 233 °C (dec.). Further, in the data set on K562 cells, the IC50 turned out to be 0.0034 µM and the “Ratio (U937 cells/K562 cells)” value is 3235. The IC50 in the data set with U937 cells (setting [1]) is 11 µM.

For the compound `COc1cc(C(=O)Nc2ccc(C)c(Nc3nccc(-c4cncc(Br)c4)n3)c2)ccc1CN1CCN(C)CC1.Cl` [Example 14, 3-methoxy-4-(4-methylpiperazin-1-ylmethyl)-N-{3-[4-(5-bromopyridin-3-yl)pyrimidin-2-ylamino]-4-methylphenyl}benzamide hydrochloride], the melting point is 168 to 169 °C (dec.). Besides, in the data set on K562 cells, the IC50 turned out to be 0.0079 µM and the “Ratio (U937 cells/K562 cells)” value amounted to 253. Further, the IC50 in the data set on U937 cells (read-out: U937 cells (IC50 value: μM)) came out at 2 µM.

`Cc1ccc(NC(=O)c2ccc(CN3CCN(C)CC3)c(C(F)(F)F)c2)cc1Nc1cc(-c2cccnc2)ncn1.Cl` [Example 31, 4-(1-methylpiperazin-4-ylmethyl)-3-trifluoromethyl-N-{4-methyl-3-[6-(3-pyridyl)pyrimidin-4-ylamino]phenyl}benzamide hydrochloride]: the melting point was 190 to 194 °C (dec.). Besides, in the data set on K562 cells, the IC50 was determined as 0.0069 µM and the “Ratio (U937 cells/K562 cells)” value is 304. The IC50 in the data set with U937 cells (setting [1]) amounted to 2.1 µM.

Regarding `Cc1ccc(NC(=O)c2ccc(CN3CCNCC3)c(C(F)(F)F)c2)cc1Nc1cc(-c2cccnc2)ccn1.Cl` [Example 42, 4-(1-piperazinylmethyl)-3-trifluoromethyl-N-{4-methyl-3-[4-(3-pyridyl)pyridin-2-ylamino]phenyl}benzamide hydrochloride], the melting point was 190 to 195 °C (dec.). In the data set with K562 cells, the IC50 was 0.0068 µM and the “Ratio (U937 cells/K562 cells)” value is given as 206. The IC50 in the data set with U937 cells (setting [1]) stood at 1.4 µM.

Turning to `Cc1ccc(NC(=O)c2ccc(CN3CCC[C@H]3CN3CCCC3)c(C(F)(F)F)c2)cc1Nc1nccc(-c2cncnc2)n1.Cl` [Example 52, (−)-4-[(S)-2-(1-pyrrolidinylmethyl)pyrrolidin-1-ylmethyl]-3-trifluoromethyl-N-{4-methyl-3-[4-(5-pyrimidinyl)pyrimidin-2-ylamino]phenyl}benzamide hydrochloride], the half-inhibitory concentration (IC50) is 0.004 µM in the data set with K562 cells and 3.9 µM in the data set with U937 cells (setting [1]). In addition, the “Ratio (U937 cells/K562 cells)” value in the data set on K562 cells is 975.

In the case of `CCN1CCN(Cc2ccc(C(=O)Nc3ccc(C)c(Nc4cc(-c5cncnc5)ccn4)c3)cc2C(F)(F)F)CC1.Cl` [Example 25, 4-(4-ethylpiperazin-1-ylmethyl)-3-trifluoromethyl-N-{4-methyl-3-[4-(5-pyrimidinyl)pyridin-2-ylamino]phenyl}benzamide hydrochloride], the melting point was 254 to 256 °C (dec.). In the data set with K562 cells, the IC50 was determined as 0.0018 µM and the “Ratio (U937 cells/K562 cells)” value was 2111. The IC50 in the data set on U937 cells (setting [1]) came to 3.8 µM.

Take `CN[C@H]1CCN(Cc2ccc(C(=O)Nc3ccc(C)c(Nc4nccc(-c5cncnc5)n4)c3)cc2C(F)(F)F)C1` [Example 68, (−)-4-[(S)-3-(methylamino)pyrrolidin-1-ylmethyl]-3-trifluoromethyl-N-{4-methyl-3-[4-(5-pyrimidinyl)pyrimidin-2-ylamino]phenyl}benzamide]: in the data set with K562 cells, the half-inhibitory concentration (IC50) came to 0.0024 µM and the “Ratio (U937 cells/K562 cells)” value came out at 2417. Besides, the 50% inhibitory concentration (IC50) with U937 cells (setting [1]) was determined as 5.8 µM.

As to `Cc1ccc(NC(=O)c2ccc(CN3CC[C@@H](N(C)C)C3)c(C(F)(F)F)c2)cc1Nc1nccc(-c2cncnc2)n1.Cl` [Example 38, (+)-4-[(R)-3-(dimethylamino)pyrrolidin-1-ylmethyl]-3-trifluoromethyl-N-{4-methyl-3-[4-(5-pyrimidinyl)pyrimidin-2-ylamino]phenyl}benzamide hydrochloride], in the data set on K562 cells, the IC50 is 0.0019 µM and the “Ratio (U937 cells/K562 cells)” value was 4684. Further, the IC50 in the data set with U937 cells (setting [1]) stood at 8.9 µM.

Take `Cc1ccc(NC(=O)c2ccc(CN3CCN[C@@H](C)C3)c(C(F)(F)F)c2)cc1Nc1nccc(-c2cncnc2)n1.Cl` [Example 55, 4-((S)-3-methylpiperazin-1-ylmethyl)-3-trifluoromethyl-N-{4-methyl-3-[4-(5-pyrimidinyl)pyrimidin-2-ylamino]phenyl}benzamide]: in the data set with K562 cells, the IC50 is 0.0022 µM and the “Ratio (U937 cells/K562 cells)” value came out at 4545. In addition, in the data set with U937 cells (setting [1]), the IC50 stood at 10 µM.

Turning to `Cc1ccc(NC(=O)c2ccc(CC3CCN(C)CC3)c(CF)c2)cc1Nc1nccc(-c2cncnc2)n1` [Example 21, 3-fluoromethyl-4-(1-methylpiperidin-4-ylmethyl)-N-{4-methyl-3-[4-(5-pyrimidinyl)pyrimidin-2-ylamino]phenyl}benzamide], the IC50 in the data set on K562 cells stood at 0.0063 µM; in the data set with U937 cells (setting [1]), 42 µM. The “Ratio (U937 cells/K562 cells)” value with K562 cells worked out at 6667.

Regarding `CO[C@H]1CN(Cc2ccc(C(=O)Nc3ccc(C)c(Nc4nccc(-c5cncnc5)n4)c3)cc2C(F)(F)F)C[C@@H]1N(C)C.Cl` [Example 59, 4-[(3S,4S)-3-(dimethylamino)-4-methoxypyrrolidin-1-ylmethyl]-3-trifluoromethyl-N-{4-methyl-3-[4-(5-pyrimidinyl)pyrimidin-2-ylamino]phenyl}benzamide hydrochloride], in the data set on K562 cells, the IC50 amounted to 0.0081 µM and the “Ratio (U937 cells/K562 cells)” value is 1605. The IC50 in the data set with U937 cells (setting [1]) amounted to 13 µM.

`CN[C@H]1CCN(Cc2ccc(C(=O)Nc3ccc(C)c(Nc4nccc(-c5cncnc5)n4)c3)cc2C(F)(F)F)C1` (as salt: salt) [Example 68, (−)-4-[(S)-3-(methylamino)pyrrolidin-1-ylmethyl]-3-trifluoromethyl-N-{4-methyl-3-[4-(5-pyrimidinyl)pyrimidin-2-ylamino]phenyl}benzamide]: the melting point was 142 to 149 °C (dec.).

On to `Cc1ccc(NC(=O)c2ccc(CN3CC[C@H](N(C)C)C3)c(C(F)(F)F)c2)cc1Nc1nccc(-c2cncnc2)n1.Cl` [Example 48, (−)-4-[(S)-3-(dimethylamino)pyrrolidin-1-ylmethyl]-3-trifluoromethyl-N-{4-methyl-3-[4-(5-pyrimidinyl)pyrimidin-2-ylamino]phenyl}benzamide hydrochloride], for which, in the data set on K562 cells, the IC50 stood at 0.004 µM and the “Ratio (U937 cells/K562 cells)” value stood at 3000. The concentration for half-maximal inhibition (IC50) with U937 cells (setting [1]) was found to be 12 µM.

For the compound `Cc1ccc(NC(=O)c2ccc(CN3CCNCC3)c(C(F)(F)F)c2)cc1Nc1nccc(-c2cncnc2)n1` [Example 43, 4-(1-piperazinylmethyl)-3-trifluoromethyl-N-{4-methyl-3-[4-(5-pyrimidinyl)pyrimidin-2-ylamino]phenyl}benzamide trifluoroacetate], in the data set on K562 cells, the IC50 turned out to be 0.0011 µM and the “Ratio (U937 cells/K562 cells)” value is on record as 3545. Besides, in the data set on U937 cells (setting [1]), the IC50 was determined as 3.9 µM.

The compound `Cc1ccc(NC(=O)c2ccc(CN3CCN(C)CC3)c(C(F)(F)F)c2)cc1Nc1cc(-c2cccnc2)ccn1` (as salt: methanesulfonate) [Example 29, 4-(4-methylpiperazin-1-ylmethyl)-3-trifluoromethyl-N-{4-methyl-3-[4-(3-pyridyl)pyridin-2-ylamino]phenyl}benzamide methanesulfonate] had a melting point of 189 to 191 °C.

Turning to `Cc1ccc(NC(=O)c2ccc(CN3CCN(C)CC3)c(C(F)(F)F)c2)cc1Nc1cc(-c2cccnc2)ccn1` [Example 29, 4-(4-methylpiperazin-1-ylmethyl)-3-trifluoromethyl-N-{4-methyl-3-[4-(3-pyridyl)pyridin-2-ylamino]phenyl}benzamide methanesulfonate], the figures for the IC50 with K562 cells and in the data set on U937 cells (setting [1]) were 0.0017 µM and 1.4 µM, respectively. The “Ratio (U937 cells/K562 cells)” value with K562 cells was 824.

Turning to `Cc1ccc(NC(=O)c2ccc(CN3CCN(C)CC3)c(C(F)(F)F)c2)cc1Nc1cc(-c2cccnc2)ccn1` [Example 28, 4-(4-methylpiperazin-1-ylmethyl)-3-trifluoromethyl-N-{4-methyl-3-[4-(3-pyridyl)pyridin-2-ylamino]phenyl}benzamide], the melting point was 241 to 242 °C (dec.).
